“Also recorded” adds a separate entry of the source. Like-named read-outs stand apart in the source and are kept apart here.
Legend:
normal pigs = assay: Haemodynamic effects after LAD injection in normal pigs without balloon occlusion (Example 2b); format: in vivo, pig; settings: 25 ml (0.4 ml/sec) into LAD, 9 injections in 3 pigs
Excerpt: FIG. 5 depicts the effect of Compound I (with and without added Ca) and Visipaque on LVSP 45 to 70 seconds from the start of injection to the LAD of normal pigs normalised to Ringer Lacate (LR) injection.
The haemodynamic effects of compositions of Compound I with and without added CaCl2 were compared to Visipaque and Iopamidol following selective administration to the LAD in normal pigs without balloon occlusion. The effects of each contrast media were normalised to any effects seen with an equivalent injection of Ringer Lactate solution, which acted as a volume and electrolyte—“ratio” control. There were a total of 12 pigs in this study, and each pig received a single CM injected 3 times at volumes of 10 ml (4 ml/sec), 20 ml (1 ml/sec) and 25 ml (0.4 ml/sec) (total of 9 CM injections in each pig). Each CM was either preceded or followed by a control injection of Ringer Lactate, and the order of each injection (volume) was randomised in each pig.

[1] = octanol/water; cited from earlier work
Sca:SD rats = settings: rat, in vivo
Protocol: Young adult male Sca:SD rats (Scanbur, Sweden), weighing 200±20 g, were injected intravenously at a rate of 1.2 ml/min with either Compound I (340 mgI/mL, 286 mosmol/kg), iodixanol (321 mgI/mL, 284 mosmol/kg), osmotic control mannitol (283 mosmol/kg), or saline (290 mosmol/kg), administered as 2 separate doses 4 hours apart. For the interim kill animals (day 2 post-treatment), Compound I and iodixanol were dosed at 8, 10 and 12.8 gI/kg, corresponding to total dose volumes of 23.7, 29.7 and 38.0 ml/kg, and 25, 31.3 and 40 ml/kg, respectively, whereas for mannitol and saline, the dose volume was 40 ml/kg. For the 7 day terminal kill animals, there were 4 dose groups; Compound I and iodixanol (12.8 gI/kg), and saline and mannitol (40 mL/kg). In all cases, each group included 8 animals.
The following evaluations were made during the study; clinical signs, body weights and blood for haematology and clinical chemistry on days 0, 2 and 7, and gross observations, organ weight and histomorphological examination of tissues from the animals killed by excess intravenous thiopental injection on days 2 or 7. The day of dosing was defined as Day 0. Clinical biochemistry parameters (Na, K, Cl, PO4, Ca, AST, ALT, ALP, cholesterol, creatinine, CK, GGT, TG (triglyceride), total bilirubin, total protein, urea, albumin, LDH and GLDH were measured on a Beckman Synchron CX5 at 37° C. Haematology parameters (WBC, differential WBC, RBC, WBC/RBC ratio, Hgb, PLT, HCT, MCH, MCHC, MCV, MPV and RDW) were analyzed with an Abbott Cell-Dyn 3500 CS automated haematology analyzer. Kidneys from saline control and the 12.8 gI/kg Compound I and iodixanol groups were immerse fixed in 10% neutral buffered formalin, processed into paraffin wax, sectioned at a nominal thickness of 5 μm, stained with haematoxylin and eosin and examined by light microscopy.
The data were analysed by parametric one-way ANOVA, followed by Dunnett's post procedure test, using the 2 days and 7 days saline groups for comparison with the 2 days and 7 days iodixanol and Compound I groups. The statistical analysis was applied on day −1 (baseline), day 2 and day 7.

[2] = system: human serum albumin (HSA); assay: Binding to human serum albumin, equilibrium dialysis; format: in vitro ADME; settings: 25 hours, citrated human plasma
Protocol: The binding of Compound I to human serum albumin (HSA) was determined using an equilibrium dialysis method. The binding of Compound I to human serum albumin was determined to be very low, 3.1±1.3%, confirming the negligible interaction of the substance with endogenous proteins.
The binding of Compound I to human serum albumin (HSA) was determined using an equilibrium dialysis method. A stock solution of Compound I (5.0 mg/ml in phosphate buffered saline (PBS)) was mixed with citrate:human plasma in a ratio of 1:9. Equilibration was carried out in a Diachem Dianorm Dialyser against an aqueous phosphate buffered saline using a Diachem 10.17 MW cutoff 10000 membrane and was carried out for 25 hours. Analysis of the solutions was performed using an ICP-AES instrument. In addition, spiked PBS solutions were also equilibrated against citrated human plasma solutions to ensure that the equilibrium had been obtained. The binding of Compound I to human serum albumin was determined to be very low, 3.1±1.3%, confirming the negligible interaction of the substance with endogenous proteins. As a reference, the binding of iodixanol to HSA was determined to 0.4±0.9%.

[3] = Osmolality, vapour pressure osmometer; format: physicochemical; settings: 320 mgI/ml
Protocol: The osmolality of Compound I was determined at four different concentrations, 204, 254, 310 and 324 mgI/ml. The osmolality of Compound I at 320 mgI/ml is 136 mOsm/kg.
The osmolality of Compound I was determined at four different concentrations, 204, 254, 310 and 324 mgI/ml. A Vapro 5520 vapour pressure osmometer from Vapro Inc. was used.
The osmolality of Compound I at 320 mgI/ml is lower than that of iodixanol, 136 mOsm/kg vs 210 mOsm/kg at 320 mgI/ml.

[4] = Partition coefficient between octanol and water; format: physicochemical; settings: n-octanol/water
Protocol: As a measure of the hydrophilicity of Compound I, the partition coefficient between octanol and water was determined. Water (5 ml) containing the test substance (0.3 mg/ml) was shaken with 15 ml n-octanol until equilibrium had been obtained. The aqueous phase was separated by centrifugation and analyzed by HPLC (HP1100 equipped with a Discovery C18 column, 100×2.1 mm) using UV detection at 244 nm and a flow of 0.3 ml/min. Isocratic HPLC conditions were used, 8% acetonitrile in water (v/v). The octanol phase (12.5 ml) was extracted with water (0.75 ml) until equilibrium had been obtained and the phases were separated by centrifugation. The aqueous phase was analyzed by HPLC using the conditions detailed above. Both octanol and water were pre-saturated with water and octanol, respectively, before the partition coefficient experiments. […] As a comparison, the corresponding logP of iodixanol was determined to −4.02. The reported literature value is −4.05. The increased hydrophilicity of Compound I compared to iodixanol is confirmed by its HPLC behavior.

[5] = system: CD25^+-depleted peripheral blood mononuclear cells; assay: In vitro T cell proliferation model; format: cell-based; settings: 2 and 5 mg I/mL
Protocol: Generally, iodinated contrast media may cause late hypersensitivity reactions in susceptible patients from 1 hour to several days after exposure. These reactions are mainly non-serious skin eruptions such as macular, maculopapular and urticaria-like eruptions. Contrast media-induced delayed adverse reactions (DARs) such as skin eruptions appear to be caused by contrast media-reactive T cells that, upon recognizing the contrast media, proliferate and subsequently orchestrate an inflammatory reaction in the skin. The applicant has evaluated an in vitro T cell proliferation model designed to predict the relative frequency with which contrast media, such as Compound I, will cause late skin reactions in patients post-intravascular administration. Two contrast media, iodixanol and iohexol, with known rates of delayed skin reactions, and the new contrast medium, Compound I, was screened (2 and 5 mg I/mL) for in vitro T cell proliferation in CD25^+-depleted peripheral blood mononuclear cells from 100 donors representing world population HLA-DR frequencies. Positive T cell responses were evaluated according to published protocols and stimulation index values (positive response≧1.9). In vitro toxicity was tested by measuring cell viability of the first 10 donor samples incubated with test contrast media (5 mg I/mL). The results were that all major HLA-DR allotypes were represented with a frequency equivalent to the world population. No contrast media tested appeared to have a meaningful effect on cell viability. […] For iodixanol and iohexol, T cell proliferation responses for most donors occurred on days 7 and 8; statistical significance favored a reduced proliferation response to Compound I on day 8. In conclusions the model successfully established the relative frequency with which contrast media caused in vitro T cell activation. The results correlated with reported frequency of late skin reactions with two marketed contrast media and identified a lower frequency for Compound I.

| Compound | induction of ventricular fibrillation (VF) (normal pigs) | logP, reported literature value [1] | Glomerulus: Bowman's Space Proteinaceous Material, Right Kidney (Sca:SD rats; male, Sca:SD, 2 day) | duration of clinical signs (Sca:SD rats; male, Sca:SD, iv) [h] | onset of clinical signs after the first administration (Sca:SD rats; male, Sca:SD, iv) [min] | Glomerulus: Bowman's Space Proteinaceous Material, Right Kidney (Sca:SD rats) | adverse clinical signs (Sca:SD rats; iv) | binding to human serum albumin (HSA) [2] [%] | osmolality [3] [mOsm/kg] | logP [4] | days on which T cell proliferation responses occurred for most donors [5] |
| --- | --- | --- | --- | --- | --- | --- | --- | --- | --- | --- | --- |
| C[C@H](O)C(=O)Nc1c(I)c(C(=O)NC(CO)CO)c(I)c(C(=O)NC(CO)CO)c1I [Iopamidol, reference compound] | VF was observed in each case; also recorded: induced VF on every occasion |  |  |  |  |  |  |  |  |  |  |
| CC(=O)N(CC(O)CN(C(C)=O)c1c(I)c(C(=O)NCC(O)CO)c(I)c(C(=O)NCC(O)CO)c1I)c1c(I)c(C(=O)NCC(O)CO)c(I)c(C(=O)NCC(O)CO)c1I (stereo not drawn) [iodixanol, reference compound] |  | −4.05 | P, P, P, 0 | 2 to 3 | 10 to 20 | P, P, P, P, | mild to moderate depression and uncoordinated movements and weakness/inactivity | 0.4±0.9 | 210 | -4.02 | days 7 and 8 |
| CC(=O)N(CC(O)CO)c1c(I)c(C(=O)NCC(O)CO)c(I)c(C(=O)NCC(O)CO)c1I (stereo not drawn) [iohexol, reference compound] |  |  |  |  |  |  |  |  |  |  | days 7 and 8 |

From patent US8815210B2, “Diagnostic composition comprising plasma cations having superior safety profile” (GE Healthcare AS, priority 2009, dated 2014)
